Laboratory results as given in BindingDB's records for PubMed 37639823 (Shenyang Pharmaceutical University).

Experiment: Inhibition of NLRP3 inflammasome in mouse BMDMs assessed as reduction in pyroptosis activity preincubated with LPS for 4 hrs followed by compound addition for 30 mins prior to nigericin addition and measured after 1 hr by ELISA

Compound | IC50 [nM]
CC1=C(O)C(=O)C=C2C1=CC=C1[C@@]2(C)[C@@H](Br)C[C@@]2(C)[C@@H]3C[C@@H](C)C(=O)C[C@]3(C)CC[C@]12C | 130
COc1c(O)cc2c(c1C)C(=O)C=C1[C@@]2(C)CC[C@@]2(C)[C@@H]3C[C@@H](C)C(=O)[C@@H](O)[C@]3(C)CC[C@]12C | 2210
